Results taken from US8624034B2, “Fluoro-pyridinone derivatives useful as antibacterial agents” (Pfizer Inc., priority 2011, dated 2014).
Converted amounts (≈) assume the structure as drawn. Where two headings read alike, the source gives them in different places.

Key:
PA:UC12120 = assay: MIC determination, PA:UC12120 (Table 3); type: cell-based, Pseudomonas aeruginosa; conditions: Pseudomonas aeruginosa, UC12120, Table 3, lower of duplicate values
Description: (§1) The in vitro antibacterial activity of compounds described in the Examples was evaluated by minimum inhibitory concentration (MIC) testing according to Clinical and Laboratory Standards Institute (CLSI). See: Clinical and Laboratory Standards Institute. Methods for Dilution Antimicrobial Susceptibility Tests for Bacteria that Grow Aerobically; Approved Standard-Eighth Edition. CLSI document M7-A8 [ISBN 1-56238-689-1]. Clinical and Laboratory Standards Institute, 940 West Valley Road, Suite 1400, Wayne, Pa. 19087-1898 USA, 2006; also Clinical and Laboratory Standards Institute. Performance Standards for Antimicrobial Susceptibility Testing; Twentieth Informational Supplement. CLSI document M100-S20 [ISBN 1-56238-716-2]. Clinical and Laboratory Standards Institute.
(§2) The MIC determination is a standard laboratory method for evaluating the antibacterial activity of a compound. The MIC represents the lowest drug concentration that inhibits visible growth of bacteria following overnight incubation. […] Typically, the drug concentration range is broken down into 2-fold increments (e.g. 0.06 μg/mL, 0.12 μg/mL. 0.25 μg/mL, 0.50 μg/mL, 1.0 μg/mL, etc.) and the various drug concentrations are all individually incubated overnight with approximately the same number of bacteria. The MIC is then determined by visually inspecting the drug effect at each concentration, and identifying the lowest drug concentration that has inhibited bacterial growth as compared to the drug free control. Typically, bacteria continue to grow at drug concentrations lower than the MIC and don't grow at concentrations at and above the MIC.
(§3) The MIC values described in Table 2 and 3 below were derived from assays wherein each test compound was evaluated in duplicate. In cases where the duplicate values varied by 0-2-fold, the lower of the two values was reported below. Generally speaking, if the duplicate values varied by more than 2-fold, the assay was considered non-valid and was repeated until the variation between duplicate runs was ≦2-fold. In line with the CLSI guidelines referred to above, both control organisms and reference compounds were utilized in each MIC assay to provide proper quality control. MIC values generated with these control organisms and reference compounds were required to fall within a defined range for the assay to be considered valid and be included herein. Those skilled in the art will recognize that MIC values can and do vary from experiment to experiment. Generally speaking, it should be recognized that MIC values often vary +/−2-fold from experiment to experiment. While a single MIC is reported for each compound and each microorganism, the reader should not conclude that each compound was only tested once. Several of the compounds were subjected to multiple tests. The data reported in Tables 2 and 3 is reflective of the compounds relative activity and different MICs may have been generated on these occasions in line with the guidelines described above.
In Table 3 below, column 1 corresponds to the Example number, column 2 provides the IUPAC name, columns 3-6 provide in vitro biological data generated in the same manner as in Table 2, columns 7 and 8 provide the retention times and mass spectra generated via LCMS, using the method described below. All data is not currently available for all compounds, as indicated by a blank cell in Table 3.

[1] = tested on: Escherichia coli EC-1: VOGEL, mouse virulent; assay: MIC determination, EC-1; type: cell-based; conditions: Escherichia coli, read-out: EC-1 (MIC), Table 3, lower of duplicate values
Description: as §1, §2, §3
(§4) The following bacterial strains were used in these MIC determinations:
3) Escherichia coli EC-1: VOGEL, mouse virulent labeled as EC-1 in Tables 2 and 3;

[2] = tested on: Acinetobacter baumannii/haemolyticus, multidrug-resistant clinical isolate (AB-3167); assay: MIC determination, AB-3167; type: cell-based; conditions: Table 3, lower of duplicate values
Description: as §1, §2, §3, §4
2) Acinetobacter baumannii/haemolyticus: Multidrug-resistant clinical isolate labeled as AB-3167 in Tables 2 and 3;

[3] = molecular target: T1, Pseudomonas aeruginosa LpxC enzyme (Pseudomonas aeruginosa, UniProt P47205); assay: IC50 assay, LpxC enzyme from P. aeruginosa (PA LpxC enzyme IC50); type: biochemical; conditions: LpxC enzyme 0.1 nM, 25° C., 1 hour
T1 construct: made in house; host or cells: E. coli
T1 sequence (P47205 1-303): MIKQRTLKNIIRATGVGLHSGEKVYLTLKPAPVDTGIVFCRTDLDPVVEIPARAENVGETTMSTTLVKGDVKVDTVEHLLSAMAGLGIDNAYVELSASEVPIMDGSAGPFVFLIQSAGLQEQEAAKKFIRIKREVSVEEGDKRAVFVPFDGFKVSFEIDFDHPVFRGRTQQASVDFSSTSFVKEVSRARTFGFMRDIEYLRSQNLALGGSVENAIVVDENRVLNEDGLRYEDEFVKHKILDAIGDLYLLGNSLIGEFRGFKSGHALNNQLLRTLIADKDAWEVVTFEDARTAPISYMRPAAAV
Description: In order to assess the compounds biological activity, selected in vitro assays were conducted on selected compounds. One of the assays measured the compounds ability to disrupt the synthesis of lipopolysaccharide, LPS, which is a component of the outer membrane of Gram-negative bacteria. Disruption of this synthesis is lethal to the bacteria. The assay determined the compound's ability to inhibit LpxC, which is the first enzyme in the biosynthetic pathway for LPS (measured as IC50). Additionally, MICs (minimal inhibitory concentrations) were determined for several bacteria. The specific protocols are described below:
A) IC50 Assay, LpxC Enzyme from P. aeruginosa (Labeled as PA LpxC Enzyme IC50):
At the end of 1 hour, 5 ul of 1 N HCl was added to stop the enzyme reaction, the plates were centrifuged, and then processed with the BioTrove Rapidfire HTMS Mass Spectrometry System. A no-enzyme control was used in calculating the IC50 values from the percent conversion values.

Compound	MIC (PA:UC12120)	MIC [1]	MIC [2]	IC50 ([3]; Table 3, read-out: PA:IC50)	IC50 ([3]; PA:IC50, Table 3)
COc1ccc(-c2cc(=O)n(CCC(C)(C(=O)NO)S(C)(=O)=O)cc2F)cc1 (stereo not drawn) [Example 59, 4-[5-fluoro-4-(4-methoxyphenyl)-2-oxopyridin-1(2H)-yl]-N-hydroxy-2-methyl-2-(methylsulfonyl)butanamide]	1 µg/mL (≈ 2.42 µM)	1 µg/mL (≈ 2.42 µM)	> 64 µg/mL	1 nM	
CC(CCn1cc(F)c(-c2ccc3c(c2)CCO3)cc1=O)(C(=O)NO)S(C)(=O)=O (stereo not drawn) [Example 120, 4-[4-(2,3-dihydro-1-benzofuran-5-yl)-5-fluoro-2-oxopyridin-1(2H)-yl]-N-hydroxy-2-methyl-2-(methylsulfonyl)butanamide]	1 µg/mL (≈ 2.36 µM)	2 µg/mL (≈ 4.71 µM)	> 64 µg/mL	0.9 nM	
COc1ccccc1-c1cc(=O)n(CCC(C)(C(=O)NO)S(C)(=O)=O)cc1F (stereo not drawn) [Example 125, 4-[5-fluoro-4-(2-methoxyphenyl)-2-oxopyridin-1(2H)-yl]-N-hydroxy-2-methyl-2-(methylsulfonyl)butanamide]	8 µg/mL (≈ 19.4 µM)	64 µg/mL (≈ 155 µM)	> 64 µg/mL	12.9 nM	
CC(C)(C#N)c1ccc(-c2cc(=O)n(CCC(C)(C(=O)NO)S(C)(=O)=O)cc2F)cc1 (stereo not drawn) [Example 60, 4-{4-[4-(1-cyano-1-methylethyl)phenyl]-5-fluoro-2-oxopyridin-1(2H)-yl}-N-hydroxy-2-methyl-2-(methylsulfonyl)butanamide]	4 µg/mL (≈ 8.9 µM)	32 µg/mL (≈ 71.2 µM)	> 64 µg/mL	3.9 nM	
CC(=O)Nc1ccc(-c2cc(=O)n(CCC(C)(C(=O)NO)S(C)(=O)=O)cc2F)cc1 (stereo not drawn) [Example 81, 4-[4-(4-acetamidophenyl)-5-fluoro-2-oxopyridin-1(2H)-yl]-N-hydroxy-2-methyl-2-(methylsulfonyl)butanamide]	32 µg/mL (≈ 72.8 µM)	64 µg/mL (≈ 146 µM)	> 64 µg/mL	24.3 nM	
Cc1ccc2ccc(-c3cc(=O)n(CCC(C)(C(=O)NO)S(C)(=O)=O)cc3F)cc2n1 (stereo not drawn) [Example 96, 4-[5-fluoro-4-(2-methylquinolin-7-yl)-2-oxopyridin-1(2H)-yl]-N-hydroxy-2-methyl-2-(methylsulfonyl)butanamide]	32 µg/mL (≈ 71.5 µM)	16 µg/mL (≈ 35.8 µM)	> 64 µg/mL	10.8 nM	
CCOc1cccc(-c2cc(=O)n(CCC(C)(C(=O)NO)S(C)(=O)=O)cc2F)c1 (stereo not drawn) [Example 112, 4-[4-(3-ethoxyphenyl)-5-fluoro-2-oxopyridin-1(2H)-yl]-N-hydroxy-2-methyl-2-(methylsulfonyl)butanamide]	4 µg/mL (≈ 9.38 µM)	2 µg/mL (≈ 4.69 µM)	> 64 µg/mL	3.1 nM	
CCOc1ccc(-c2cc(=O)n(CCC(C)(C(=O)NO)S(C)(=O)=O)cc2F)cc1 (stereo not drawn) [Example 76, 4-[4-(4-ethoxyphenyl)-5-fluoro-2-oxopyridin-1(2H)-yl]-N-hydroxy-2-methyl-2-(methylsulfonyl)butanamide]	0.5 µg/mL (≈ 1.17 µM)	0.25 µg/mL (≈ 0.586 µM)	> 64 µg/mL	1.1 nM	
CC(CCn1cc(F)c(-c2ccc(O)nc2)cc1=O)(C(=O)NO)S(C)(=O)=O (stereo not drawn) [Example 80, 4-(5′-fluoro-6-hydroxy-2′-oxo-3,4′-bipyridin-1′(2′H)-yl)-N-hydroxy-2-methyl-2-(methylsulfonyl)butanamide]	> 64 µg/mL	> 64 µg/mL	> 64 µg/mL	> 100 nM	
CCOc1cc(-c2cc(=O)n(CCC(C)(C(=O)NO)S(C)(=O)=O)cc2F)ccn1 (stereo not drawn) [Example 92, 4-(2′-ethoxy-5-fluoro-2-oxo-4,4′-bipyridin-1(2H)-yl)-N-hydroxy-2-methyl-2-(methylsulfonyl)butanamide]	8 µg/mL (≈ 18.7 µM)	8 µg/mL (≈ 18.7 µM)	> 64 µg/mL	5.7 nM	
CC(CCn1cc(F)c(-c2cnc(N3CCCC3)nc2)cc1=O)(C(=O)NO)S(C)(=O)=O (stereo not drawn) [Example 106, 4-[5-fluoro-2-oxo-4-(2-pyrrolidin-1-ylpyrimidin-5-yl)pyridin-1(2H)-yl]-N-hydroxy-2-methyl-2-(methylsulfonyl)butanamide]	64 µg/mL (≈ 141 µM)	32 µg/mL (≈ 70.6 µM)	> 64 µg/mL	56.8 nM	
CC(CCn1cc(F)c(-c2ccc(CO)nc2)cc1=O)(C(=O)NO)S(C)(=O)=O (stereo not drawn) [Example 85, 4-[5′-fluoro-6-(hydroxymethyl)-2′-oxo-3,4′-bipyridin-1′(2′H)-yl]-N-hydroxy-2-methyl-2-(methylsulfonyl)butanamide]	> 64 µg/mL	> 64 µg/mL	> 64 µg/mL	> 100 nM	
COc1cc(-c2cc(=O)n(CCC(C)(C(=O)NO)S(C)(=O)=O)cc2F)ccc1F (stereo not drawn) [Example 67, 4-[5-fluoro-4-(4-fluoro-3-methoxyphenyl)-2-oxopyridin-1(2H)-yl]-N-hydroxy-2-methyl-2-(methylsulfonyl)butanamide]	4 µg/mL (≈ 9.29 µM)	16 µg/mL (≈ 37.2 µM)	64 µg/mL (≈ 149 µM)	4.5 nM	
Cc1ncc(-c2cc(=O)n(CCC(C)(C(=O)NO)S(C)(=O)=O)cc2F)cc1F (stereo not drawn) [Example 83, 4-(5,5′-difluoro-6-methyl-2′-oxo-3,4′-bipyridin-1′(2′H)-yl)-N-hydroxy-2-methyl-2-(methylsulfonyl)butanamide]	32 µg/mL (≈ 77 µM)	> 64 µg/mL	> 64 µg/mL	27.5 nM	
CN(C)c1ncc(-c2cc(=O)n(CCC(C)(C(=O)NO)S(C)(=O)=O)cc2F)cn1 (stereo not drawn) [Example 115, 4-{4-[2-(dimethylamino)pyrimidin-5-yl]-5-fluoro-2-oxopyridin-1(2H)-yl}-N-hydroxy-2-methyl-2-(methylsulfonyl)butanamide]	32 µg/mL (≈ 74.9 µM)	32 µg/mL (≈ 74.9 µM)	> 64 µg/mL	74.1 nM	
CC(CCn1cc(F)c(-c2ccccc2)cc1=O)(C(=O)NO)S(C)(=O)=O (stereo not drawn) [Example 78, 4-(5-fluoro-2-oxo-4-phenylpyridin-1(2H)-yl)-N-hydroxy-2-methyl-2-(methylsulfonyl)butanamide]	1 µg/mL (≈ 2.61 µM)	4 µg/mL (≈ 10.5 µM)	> 64 µg/mL		2.8 nM
CN(C)Cc1ccc(-c2cc(=O)n(CCC(C)(C(=O)NO)S(C)(=O)=O)cc2F)cc1 (stereo not drawn) [Example 79, 4-[4-{4-[(dimethylamino)methyl]phenyl}-5-fluoro-2-oxopyridin-1(2H)-yl]-N-hydroxy-2-methyl-2-(methylsulfonyl)butanamide]	16 µg/mL (≈ 36.4 µM)	> 64 µg/mL	> 64 µg/mL	35.9 nM	
CC(CCn1cc(F)c(-c2cccc(C#N)c2)cc1=O)(C(=O)NO)S(C)(=O)=O (stereo not drawn) [Example 82, 4-[4-(3-cyanophenyl)-5-fluoro-2-oxopyridin-1(2H)-yl]-N-hydroxy-2-methyl-2-(methylsulfonyl)butanamide]	8 µg/mL (≈ 19.6 µM)	64 µg/mL (≈ 157 µM)	> 64 µg/mL	13 nM	
